± gives the expanded uncertainty stated by the source.
Legend:
[1] = Crystal; DSC
[2] = Molar enthalpy of transition or fusion; conditions: Crystal; DSC

Row | SMILES | Triple point temperature [1] [K] | Molar enthalpy of transition or fusion [2] [kcal/mol]
1 | Cc1ccc(C(C)C)c(O)c1 [3-methyl-6-isopropylphenol] | 321.9 ± 1.4 | 3.11 ± 0.502
2 | CC(C)[C@@H]1CC[C@@H](C)C[C@H]1O [L-menthol] | 314.4 ± 2.4 | 2.85 ± 0.454

Results, then the molecule that gave them:

Row | Triple point temperature [1] [K] | Molar enthalpy of transition or fusion [2] [kcal/mol] | SMILES
3 | 336.8 ± 1.4 | 37.9 ± 0.789 | CCCCCCCCCCCCCCCC(=O)OCC(COC(=O)CCCCCCCCCCCCCCC)OC(=O)CCCCCCCCCCCCCCC [1,2,3-propanetriyl tri(hexadecanoate)]
4 | 329.4 ± 1.4 | 34.5 ± 0.741 | CCCCCCCCCCCCCC(=O)OCC(COC(=O)CCCCCCCCCCCCC)OC(=O)CCCCCCCCCCCCC [1,2,3-propanetriyl tri(tetradecanoate)]
5 | 343.8 ± 1.4 | 44 ± 0.884 | CCCCCCCCCCCCCCCCCC(=O)OCC(COC(=O)CCCCCCCCCCCCCCCCC)OC(=O)CCCCCCCCCCCCCCCCC [glycerol trioctadecanoate]
